One may read the IC50 as the concentration at which inhibition is half-maximal.

The values that follow come from patent US10428080B2, “TBK/IKK inhibitor compounds and uses thereof” (Merck Patent GmbH, priority 2015, dated 2019).

Counter-ions that a name gives are not always drawn. Some results are limits rather than exact numbers.

For assay [1], the target named is T1, TBK1 (Homo sapiens, UniProt Q9UHD2).
T1 sequence (Q9UHD2 1-729): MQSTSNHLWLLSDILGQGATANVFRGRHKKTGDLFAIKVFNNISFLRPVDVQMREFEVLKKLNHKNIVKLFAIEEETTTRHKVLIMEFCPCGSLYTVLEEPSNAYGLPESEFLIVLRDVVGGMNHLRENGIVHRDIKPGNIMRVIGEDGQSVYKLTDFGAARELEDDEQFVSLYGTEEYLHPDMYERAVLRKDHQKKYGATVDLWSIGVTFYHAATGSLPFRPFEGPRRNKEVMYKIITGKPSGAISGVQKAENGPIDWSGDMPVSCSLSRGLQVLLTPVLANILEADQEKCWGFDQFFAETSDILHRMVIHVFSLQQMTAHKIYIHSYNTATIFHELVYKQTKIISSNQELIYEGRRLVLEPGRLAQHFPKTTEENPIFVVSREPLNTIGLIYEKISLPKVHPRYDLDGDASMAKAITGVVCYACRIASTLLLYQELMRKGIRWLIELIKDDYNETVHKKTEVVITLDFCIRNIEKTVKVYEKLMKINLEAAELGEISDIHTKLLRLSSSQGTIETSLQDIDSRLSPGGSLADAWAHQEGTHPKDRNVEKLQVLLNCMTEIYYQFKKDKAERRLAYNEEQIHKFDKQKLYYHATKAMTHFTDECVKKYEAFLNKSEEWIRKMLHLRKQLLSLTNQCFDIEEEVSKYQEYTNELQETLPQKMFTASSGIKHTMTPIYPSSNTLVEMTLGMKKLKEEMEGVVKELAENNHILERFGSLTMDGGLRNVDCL
Nature of the assay: TBK Biochemical Assay. The settings on record: read-out: TBK1 IC50. The essentials: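 Caliper LabChip mobility-shift readout of substrate and product after 90 min of TBK1 reaction at 25° C and stop-buffer addition. Compounds tested in 1:4 serial dilution over 10 points from 30 uM final at 1% DMSO; staurosporine 10 uM final defines full inhibition.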

The target of assay [2] is T2, IKKε (Homo sapiens, UniProt Q14164).
T2 sequence (Q14164 1-716): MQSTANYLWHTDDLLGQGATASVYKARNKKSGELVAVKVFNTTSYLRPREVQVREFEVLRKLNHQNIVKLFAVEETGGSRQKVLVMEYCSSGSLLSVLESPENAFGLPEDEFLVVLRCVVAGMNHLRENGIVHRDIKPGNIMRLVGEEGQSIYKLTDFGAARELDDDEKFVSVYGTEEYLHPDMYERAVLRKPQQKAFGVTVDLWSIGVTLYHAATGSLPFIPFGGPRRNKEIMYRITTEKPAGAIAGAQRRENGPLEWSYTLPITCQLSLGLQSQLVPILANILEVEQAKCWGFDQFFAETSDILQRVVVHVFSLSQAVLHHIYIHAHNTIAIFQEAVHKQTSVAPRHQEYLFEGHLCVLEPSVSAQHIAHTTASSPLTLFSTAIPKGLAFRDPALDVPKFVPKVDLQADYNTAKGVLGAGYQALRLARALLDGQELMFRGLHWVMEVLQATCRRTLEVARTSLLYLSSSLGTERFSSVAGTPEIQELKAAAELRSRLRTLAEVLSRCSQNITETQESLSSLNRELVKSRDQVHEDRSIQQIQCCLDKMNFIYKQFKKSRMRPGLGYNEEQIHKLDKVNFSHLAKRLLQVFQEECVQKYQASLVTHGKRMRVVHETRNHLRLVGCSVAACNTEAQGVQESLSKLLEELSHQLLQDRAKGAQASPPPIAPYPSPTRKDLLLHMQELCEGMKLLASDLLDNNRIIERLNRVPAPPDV
The assay is described as follows: IKKe Biochemical Assay. The settings on record: read-out: IKKε IC50. A digest of the protocol:
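Activity was measured as mobility-shift separation of phosphorylated from unphosphorylated substrate on a LabChip EZ Reader. Compound was titrated from 30 uM final in 10 points, 1:4 steps, with 1% DMSO, and enzyme plus substrate reacted 90 min at 25° C before stop buffer. Control wells held 10 uM staurosporine.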

Take `COc1cc(C(=O)N2C3CCC2COC3)ccc1-c1cc2nccc(-c3ccc(OC4CCOCC4)c(C#N)c3)c2o1` [Compound 2, 5-{2-[2-Methoxy-4-(3-oxa-8-aza-bicyclo[3.2.1]octane-8-carbonyl)-phenyl]-furo[3,2-b]pyridin-7-yl}-2-(tetrahydro-pyran-4-yloxy)-benzonitrile]: the IC50 in assay [1] and in assay [2] was under 100 nM each time.

In the case of `COc1cc(C(=O)NCC2CCCCC2(F)F)ccc1-c1cc2nccc(-c3ccc(NC4CCOCC4)c(C#N)c3)c2o1` (stereo not shown) [Compound 180, 4-{7-[3-Cyano-4-(tetrahydro-pyran-4-ylamino)-phenyl]-furo[3,2-b]pyridin-2-yl}-N-(2,2-difluoro-cyclohexylmethyl)-3-methoxy-benzamide], the IC50 in assay [1] and in assay [2] was 100 to 1000 nM each time.

Take `CN(C)C(=O)c1ccc(-c2cc3nccc(-c4ccc(NC5CCOCC5)c(C#N)c4)c3o2)nc1` [Compound 244, 6-(7-(3-cyano-4-(tetrahydro-2H-pyran-4-ylamino)phenyl)furo[3,2-b]pyridin-2-yl)-N,N-dimethylnicotinamide]: the IC50 in assay [1] and in assay [2] was 100 to 1000 nM in each case.

Turning to `CN(C)C(=O)c1ccc(-c2cc3nccc(-c4ccc(NC5CCOCC5)c(C#N)c4)c3o2)c(F)c1` [Compound 250, 4-(7-(3-cyano-4-(tetrahydro-2H-pyran-4-ylamino)phenyl)furo[3,2-b]pyridin-2-yl)-3-fluoro-N,N-dimethylbenzamide], the IC50 in assay [1] and in assay [2] was 100 to 1000 nM each time.

As for `COc1cc(C(=O)N2C3CCC2COC3)ccc1-c1cc2nccc(-c3ccc(NC4CCOCC4)c(C#N)c3)c2o1` [Compound 94, 5-{2-[2-Methoxy-4-(3-oxa-8-aza-bicyclo[3.2.1]octane-8-carbonyl)-phenyl]-furo[3,2-b]pyridin-7-yl}-2-(tetrahydro-pyran-4-ylamino)-benzonitrile], the IC50 in assay [1] and in assay [2] was under 100 nM each time.

For `COc1cc(C(=O)N(C)CCO)cnc1-c1cc2ncc(OC)c(-c3ccc(OC4CCOCC4)c(C#N)c3)c2o1` [Compound 343, 6-[7-[3-cyano-4-(oxan-4-yloxy)phenyl]-6-methoxyfuro[3,2-b]pyridin-2-yl]-N-(2-hydroxyethyl)-5-methoxy-N-methylpyridine-3-carboxamide], the IC50 in assay [1] and in assay [2] was 100 to 1000 nM in each case.

With `CN(C)C(=O)c1ccc(-c2cc3nccc(-c4ccc(NC5C6COCC65)c(C#N)c4)c3o2)cc1` (stereo not shown) [Compound 217, 4-(7-(4-(3-oxa-bicyclo[3.1.0]hexan-6-ylamino)-3-cyanophenyl)furo[3,2-b]pyridin-2-yl)-N,N-dimethylbenzamide hydrochloride], the IC50 in assay [1] and in assay [2] was 100 to 1000 nM throughout.

For `COc1cc(C(=O)N(C)C)ccc1-c1cc2nccc(-c3ccc(OC4(C(F)(F)F)CCNC4)c(C#N)c3)c2o1` (stereo not shown) [Compound 113, 4-{7-[3-Cyano-4-(3-trifluoromethyl-pyrrolidin-3-yloxy)-phenyl]-furo[3,2-b]pyridin-2-yl}-3-methoxy-N,N-dimethyl-benzamide], the IC50 in assay [1] and in assay [2] was under 100 nM in each case.

For the compound `COc1cc(C(=O)N2CC3CCC(O)C3C2)ccc1-c1cc2nccc(-c3ccc(NC4CCOCC4)c(C#N)c3)c2o1` (stereo not shown) [Compound 96], the IC50 in assay [1] and in assay [2] was under 100 nM each time.

With `CN(C)C(=O)c1ccc(-c2cc3nccc(-c4ccc(O[C@H]5CCCOC5)c(C#N)c4)c3o2)cc1` [Compound 174, 4-(7-{3-Cyano-4-[(S)-(tetrahydro-pyran-3-yl)oxy]-phenyl}-furo[3,2-b]pyridin-2-yl)-N,N-dimethyl-benzamide], the IC50 in assay [1] and in assay [2] was 100 to 1000 nM throughout.

Take `COc1cc(C(=O)N(C)C)ccc1-c1cc2nccc(-c3ccc(O[C@@H]4CCNC4)c(C#N)c3)c2o1` [Compound 115, 4-{7-[3-Cyano-4-((R)-pyrrolidin-3-yloxy)-phenyl]-furo[3,2-b]pyridin-2-yl}-3-methoxy-N,N-dimethyl-benzamide]: the IC50 in assay [1] and in assay [2] was under 100 nM throughout.

For `COc1cc(C(=O)N2CCC(OC)CC2)ccc1-c1cc2nccc(-c3ccc(OC4CCOCC4)c(C#N)c3)c2o1` [Compound 12, 5-(2-[2-Methoxy-4-(4-methoxy-piperidine-1-carbonyl)-phenyl]-furo[3,2-b]pyridin-7-yl}-2-(tetrahydro-pyran-4-yloxy)-benzonitrile], the IC50 in assay [1] and in assay [2] was under 100 nM in each case.

Take `CN(C)C(=O)c1ccc(-c2cc3nccc(-c4ccc(O)c(C#N)c4)c3o2)cc1` [Compound 175, 4-[7-(3-Cyano-4-hydroxy-phenyl)-furo[3,2-b]pyridin-2-yl]-N,N-dimethyl-benzamide]: the half-inhibitory concentration (IC50) in assay [1] and in assay [2] was 100 to 1000 nM throughout.

Turning to `COc1cc(C(=O)N2CCCCC2)ncc1-c1cc2nccc(-c3cc(C#N)c(OC4CCOCC4)cn3)c2o1` [Compound 383, 2-(2-[4-methoxy-6-[(piperidin-1-yl)carbonyl]pyridin-3-yl]furo[3,2-b]pyridin-7-yl)-5-(oxan-4-yloxy)pyridine-4-carbonitrile], the IC50 in assay [1] and in assay [2] was 100 to 1000 nM in each case.

On to `COc1cc(C(=O)N(C)C)ccc1-c1cc2nccc(-c3ccc(OCC4CCNC4)c(C#N)c3)c2o1` (stereo not shown) [Compound 152, 4-{7-[3-Cyano-4-(pyrrolidin-3-ylmethoxy)-phenyl]-furo[3,2-b]pyridin-2-yl}-3-methoxy-N,N-dimethyl-benzamide hydrochloride], for which the IC50 in assay [1] and in assay [2] was under 100 nM in each case.

For the compound `COc1cc(C(=O)N2CC(C)(O)C2)ccc1-c1cc2nccc(-c3ccc(OC4CCOCC4)c(C#N)c3)c2o1` [Compound 48, 5-{2-[4-(3-Hydroxy-3-methyl-azetidine-1-carbonyl)-2-methoxy-phenyl]-furo[3,2-b]pyridin-7-yl}-2-(tetrahydro-pyran-4-yloxy)-benzonitrile], the IC50 in assay [1] and in assay [2] was under 100 nM each time.

As to `COc1cc(C(=O)N(C)C)cnc1-c1cc2ncc(F)c(-c3ccc(OC4CCOCC4)c(C#N)n3)c2o1` [Compound 351, 6-[7-[6-cyano-5-(oxan-4-yloxy)pyridin-2-yl]-6-fluorofuro[3,2-b]pyridin-2-yl]-5-methoxy-N,N-dimethylpyridine-3-carboxamide hydrochloride], the 50% inhibitory concentration (IC50) in assay [1] and in assay [2] was 100 to 1000 nM each time.

As for `COc1cc(C(=O)N(C)C)ccc1-c1cc2nccc(-c3ccc(OC4CNC4)c(C#N)c3)c2o1` [Compound 128, 4-{7-[4-(Azetidin-3-yloxy)-3-cyano-phenyl]-furo[3,2-b]pyridin-2-yl}-3-methoxy-N,N-dimethyl-benzamide], the IC50 in assay [1] and in assay [2] was under 100 nM throughout.

Consider `COc1cc(C(=O)N(C)C)ccc1-c1cc2nccc(-c3ccc(OC4[C@H](C)COC[C@H]4C)c(C#N)c3)c2o1` (single isomer, unassigned) [Compound 231, 4-(7-(3-cyano-4-(3,5-dimethyl-tetrahydro-2H-pyran-4-yloxy)phenyl)furo[3,2-b]pyridin-2-yl)-3-methoxy-N,N-dimethylbenzamide], for which the IC50 in assay [1] and in assay [2] was under 100 nM each time.

As to `COc1cc(C(=O)N(C)CCO)ccc1-c1cc2ncc(C)c(-c3ccc(NC4CCOCC4)c(C#N)c3)c2o1` [Compound 268, 4-(7-(3-cyano-4-(tetrahydro-2H-pyran-4-ylamino)phenyl)-6-methylfuro[3,2-b]pyridin-2-yl)-N-(2-hydroxyethyl)-3-methoxy-N-methylbenzamide], the IC50 in assay [1] and in assay [2] was 100 to 1000 nM throughout.
